According to patent publication US20250275969A1, “METHODS OF TREATING MALIGNANT PERIPHERAL NERVE SHEATH TUMOR (MPNST) USING LSD1 INHIBITORS” (ORYZON GENOMICS, S.A., priority 2022, published 2025):

What was measured:
Type in all cases: cell-based
MPNST-NF1-18b = test: MPNST viability assay (6 days, MTT or AlamarBlue); conditions: for EC50: cell viability, 6 days of treatment
Experimental: (§1) Mycoplasma-free MPNST cell lines (see Table 1) were seeded in 50 μl/well of complete medium (DMEM high glucose supplemented with 1× GlutaMAX™, 1× sodium pyruvate and 10% fetal bovine serum (FBS), Thermo Fisher) in 96-well plates at the optimal cell density to ensure log-phase growth throughout the duration of the experiment (see Table 1). The day after seeding, 50 μl of medium containing 9 serial dilutions (1:3) of 2×-concentrated iadademstat (LSD1 inhibitor; used as the dihydrochloride salt) were added to the cells to obtain 100 μl of cells treated with 1×-concentrated compound at each dilution. Etoposide (topoisomerase II/DNA synthesis inhibitor) was also included as a positive control of the assay. Additionally, from the MPNST cell line panel, two cell lines (sNF96.2 and sNF02.2) were selected to evaluate the effect of other LSD1 inhibitors, i.e. bomedemstat (bis-tosylate salt) and pulrodemstat (besylate salt). Each experimental condition was tested in technical triplicates, including medium-only wells and vehicle-treated controls for background correction and normalization, respectively. After treatment, cells were incubated at 37° C. in a humidified and controlled 5% CO2 atmosphere for 72 h. At this time-point, compound and medium refreshment was performed by adding 50 μl of medium supplemented with 1×-concentrated compound at each corresponding dilution. Cells were incubated for additional 72 h (for a total of 6 days) prior to evaluating cell viability using either the MTT assay (Sigma-Aldrich) or AlamarBlue™ Cell viability reagent (Life Technologies), following manufacturer's instructions. Background was calculated as the mean of the values of medium-only controls and subtracted from each data point. The average of background-corrected technical triplicates was calculated and normalized by the mean of vehicle-treated controls (corresponding to 100% of viability). Data were analyzed using GraphPad PRISM® version 9.0.1 (GraphPad Software, Inc., La Jolla, CA/USA) to calculate the best-fitting curves and the EC50 values (corresponding to the concentration of compound at which a half (50%) maximal effect is obtained; lower EC50 values thus indicate greater potency).
(§2) LSD1 inhibitors such as iadademstat have been reported to exert their therapeutic effect by inducing cancer cell differentiation and inhibiting cancer cell proliferation rather than by killing cancer cells (Sacilotto N et al., ACS Pharmacol Transl Sci, 2021, 4(6):1818-34, doi: 10.1021/acsptsci.1c00223). In line with this, a cancer cell viability reduction of more than 30% reflects a potent therapeutic effect of the corresponding LSD1 inhibitor. In the present experiment, the response obtained after LSD1 inhibitor treatment was therefore classified into the following three groups: (1) strong response (viability reduction >30%); (2) medium response (viability reduction >15% and <30%); (3) low response (viability reduction <15%). Table 3 summarizes the EC50 values obtained for etoposide (the positive control of the assay) and iadademstat together with the classification according to viability reduction after LSD1 inhibitor treatment.

S462 = test: MPNST viability assay (6 days, MTT or AlamarBlue); conditions: for EC50: cell viability, S462, 6 days of treatment
Experimental: as §1, §2

ST88-14 = test: MPNST viability assay (6 days, MTT or AlamarBlue); conditions: for EC50: cell viability, ST88-14, 6 days of treatment
Experimental: as §1, §2

MPNST-SP-10 = test: MPNST viability assay (6 days, MTT or AlamarBlue); conditions: for EC50: cell viability, MPNST-SP-10, 6 days of treatment
Experimental: as §1, §2

sNF96.2 = test: MPNST viability assay (6 days, MTT or AlamarBlue); conditions: for EC50: cell viability, sNF96.2, 6 days of treatment
Experimental: as §1, §2

MPNST-SP-01 = test: MPNST viability assay (6 days, MTT or AlamarBlue)
Experimental: as §1, §2

HS-PSS = test: MPNST viability assay (6 days, MTT or AlamarBlue); conditions: for EC50: cell viability, 6 days of treatment
Experimental: as §1, §2

NMS-2 = test: MPNST viability assay (6 days, MTT or AlamarBlue)
Experimental: as §1, §2

sNF02.2 = test: MPNST viability assay (6 days, MTT or AlamarBlue); conditions: for EC50: cell viability, sNF02.2, 6 days of treatment
Experimental: as §1, §2

90-8TL = test: MPNST viability assay (6 days, MTT or AlamarBlue); conditions: for EC50: cell viability, 6 days of treatment
Experimental: as §1, §2

MPNST-NF1-08 = test: MPNST viability assay (6 days, MTT or AlamarBlue)
Experimental: as §1, §2

MPNST-NF1-09 = test: MPNST viability assay (6 days, MTT or AlamarBlue)
Experimental: as §1, §2

[1] = test system: panel of 12 MPNST cell lines; test: MPNST viability assay, summary over the cell line panel
Experimental: as §1
A panel of 12 MPNST cell lines was used to evaluate the effects of the LSD1 inhibitor iadademstat on MPNST cell viability after 6 days of treatment, and etoposide was used as a positive control of the assay. In order for the in vitro experiments to reliably mirror the situation in the clinical setting, where MPNST patients feature a great genomic heterogeneity, a panel of different types of MPNST cell lines was used. The panel comprises both MPNST immortalized lines and MPNST cell lines derived from patients. […]

[2] = viability reduction class, 6 days

Structure (SMILES): COc1cc([C@@H]2c3cc4c(cc3[C@@H](O[C@@H]3O[C@@H]5CO[C@@H](C)O[C@H]5[C@H](O)[C@H]3O)[C@H]3COC(=O)[C@H]23)OCO4)cc(OC)c1O [etoposide]
- EC50 (MPNST-NF1-18b): 394 nM
- EC50 (S462): 376 nM
- EC50 (ST88-14): 788 nM
- EC50 (MPNST-SP-10): 269 nM
- EC50 (sNF96.2): 108 nM
- EC50 (MPNST-SP-01; cell viability, MPNST-SP-01, 6 days of treatment): 1030 nM
- EC50 (HS-PSS): 205 nM
- EC50 (NMS-2; cell viability, NMS-2, 6 days of treatment): 154 nM
- EC50 (sNF02.2): 144 nM
- EC50 (90-8TL): 164 nM
- EC50 (MPNST-NF1-08; cell viability, MPNST-NF1-08, 6 days of treatment): 740 nM
- EC50 (MPNST-NF1-09; cell viability, MPNST-NF1-09, 6 days of treatment): 737 nM

Structure (SMILES): COc1ccc(-c2c(-c3ccc(C#N)c(F)c3)nc(N3CCC(N)CC3)n(C)c2=O)cc1F [Pulrodemstat, 4-[2-(4-aminopiperidin-1-yl)-5-(3-fluoro-4-methoxyphenyl)-1-methyl-6-oxo-1,6-dihydropyrimidin-4-yl]-2-fluorobenzonitrile]
- EC50 (sNF96.2; 144 h): 0.261 nM
- EC50 (sNF02.2; 144 h): 0.166 nM

Structure (SMILES): N[C@H]1CC[C@H](N[C@@H]2C[C@H]2c2ccccc2)CC1 [iadademstat, (trans)-N1-((1R,2S)-2-phenylcyclopropyl)cyclohexane-1,4-diamine]
- cell lines showing a strong viability reduction ([1]; 3 out of 12 cell lines, 6-day treatment): 25%
- cell lines showing a medium viability reduction ([1]; 5 out of 12 cell lines, 6-day treatment): 41.67%
- EC50 values (in words) ([1]; medium- and strong-responding cell lines): subnanomolar
- medium- and strong-responding cell lines, total ([1]; of 12 cell lines, 6-day treatment): 66.67%
- EC50 (MPNST-NF1-18b; 144 h): 0.025 nM
- Response to iadademstat (viability assay) (MPNST-NF1-18b; [2]): Strong response (strong response (viability reduction >30%))
- EC50 (S462; 144 h): 0.087 nM
- Response to iadademstat (viability assay) (S462; viability reduction class, S462, 6 days): Strong response (strong response (viability reduction >30%))
- EC50 (ST88-14; 144 h): 0.039 nM
- Response to iadademstat (viability assay) (ST88-14; viability reduction class, ST88-14, 6 days): Medium response (medium response (viability reduction >15% and <30%))
- EC50 (MPNST-SP-10; 144 h): 0.033 nM
- Response to iadademstat (viability assay) (MPNST-SP-10; viability reduction class, MPNST-SP-10, 6 days): Medium response (medium response (viability reduction >15% and <30%))
- EC50 (sNF96.2; 144 h): 0.042 nM
- potency among the LSD1 inhibitors tested (in words) (sNF96.2; sNF96.2, compared with bomedemstat and pulrodemstat): highest potency
- Response to iadademstat (viability assay) (sNF96.2; viability reduction class, sNF96.2, 6 days): Strong response (strong response (viability reduction >30%))
- Response to iadademstat (viability assay) (MPNST-SP-01; viability reduction class, MPNST-SP-01, 6 days): Low response (low response (viability reduction <15%))
- EC50 (HS-PSS; 144 h): 0.046 nM
- Response to iadademstat (viability assay) (HS-PSS; [2]): Medium response (medium response (viability reduction >15% and <30%))
- Response to iadademstat (viability assay) (NMS-2; viability reduction class, NMS-2, 6 days): Low response (low response (viability reduction <15%))
- EC50 (sNF02.2; 144 h): 0.017 nM
- potency among the LSD1 inhibitors tested (in words) (sNF02.2; sNF02.2, compared with bomedemstat and pulrodemstat): highest potency
- Response to iadademstat (viability assay) (sNF02.2; viability reduction class, sNF02.2, 6 days): Medium response (medium response (viability reduction >15% and <30%))
- EC50 (90-8TL; 144 h): 0.026 nM
- Response to iadademstat (viability assay) (90-8TL; [2]): Medium response (medium response (viability reduction >15% and <30%))
- Response to iadademstat (viability assay) (MPNST-NF1-08; viability reduction class, MPNST-NF1-08, 6 days): Low response (low response (viability reduction <15%))
- Response to iadademstat (viability assay) (MPNST-NF1-09; viability reduction class, MPNST-NF1-09, 6 days): Low response (low response (viability reduction <15%))

Structure (SMILES): CN1CCN(C(=O)[C@H](CCCN[C@@H]2C[C@H]2c2ccc(F)cc2)NC(=O)c2ccc(-n3ccnn3)cc2)CC1 [Bomedemstat, N-[(2S)-5-{[(1R,2S)-2-(4-fluorophenyl)cyclopropyl]amino}-1-(4-methylpiperazin-1-yl)-1-oxopentan-2-yl]-4-(1H-1,2,3-triazol-1-yl)benzamide]
- EC50 (sNF96.2; 144 h): 1.28 nM
- EC50 (sNF02.2; 144 h): 0.094 nM
